Source: PubChem BioAssay AID1918999 (Molecular Pharmacology Branch, DTP, NCI, 2023)

System: 556581-035-R-J1-PDC complex spheroid growth
Test: Anticancer human tumor 556581-035-R-J1-PDC patient-derived ovarian carcinoma cell line growth inhibition [AhR]
Conditions: for IC50: curve of first compound; for viability, T/C: stronger effect = lower value
Method in brief: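 Spheroids combined tumor cells with HUVEC endothelial cells and human MSCs as stroma. AhR antagonists were paired with standard or investigational drugs, each dosed in half-log steps down from near clinical Cmax, or from 10 microM where Cmax was unknown.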

[1] = second compound 0.1 µM, first compound 0.0316 µM
[2] = second compound 0.1 µM, first compound 0.1 µM
[3] = second compound 0.1 µM, first compound 0.316 µM
[4] = second compound 0.1 µM, first compound 1 µM
[5] = second compound 0.1 µM, first compound 3.16 µM
[6] = second compound 0.1 µM, first compound 10 µM
[7] = second compound 0.316 µM, first compound 0.0316 µM
[8] = second compound 0.316 µM, first compound 0.1 µM
[9] = second compound 0.316 µM, first compound 0.316 µM
[10] = second compound 0.316 µM, first compound 1 µM
[11] = second compound 0.316 µM, first compound 3.16 µM
[12] = second compound 0.316 µM, first compound 10 µM
[13] = second compound 1 µM, first compound 0.0316 µM
[14] = second compound 1 µM, first compound 0.1 µM
[15] = second compound 1 µM, first compound 0.316 µM
[16] = second compound 1 µM, first compound 1 µM
[17] = second compound 1 µM, first compound 3.16 µM
[18] = second compound 1 µM, first compound 10 µM
[19] = second compound 3.16 µM, first compound 0.0316 µM
[20] = second compound 3.16 µM, first compound 0.1 µM
[21] = second compound 3.16 µM, first compound 0.316 µM
[22] = second compound 3.16 µM, first compound 1 µM
[23] = second compound 3.16 µM, first compound 3.16 µM
[24] = second compound 3.16 µM, first compound 10 µM
[25] = second compound 10 µM, first compound 0.0316 µM
[26] = second compound 10 µM, first compound 0.1 µM
[27] = second compound 10 µM, first compound 0.316 µM
[28] = second compound 10 µM, first compound 1 µM
[29] = second compound 10 µM, first compound 3.16 µM
[30] = second compound 10 µM, first compound 10 µM
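Wherever viability, T/C is given: compound exposure lasted 7 days; 100% = DMSO vehicle control growth.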

SMILES	IC50 (second compound 0.1 µM) [µM]	IC50 (second compound 0.316 µM) [µM]	IC50 (second compound 1 µM) [µM]	IC50 (second compound 3.16 µM) [µM]	IC50 (second compound 10 µM) [µM]	viability, T/C [1] [%]	viability, T/C [2] [%]	viability, T/C [3] [%]	viability, T/C [4] [%]	viability, T/C [5] [%]	viability, T/C [6] [%]	viability, T/C [7] [%]	viability, T/C [8] [%]	viability, T/C [9] [%]	viability, T/C [10] [%]	viability, T/C [11] [%]	viability, T/C [12] [%]	viability, T/C [13] [%]	viability, T/C [14] [%]	viability, T/C [15] [%]	further results
CC(C)c1c(-c2ccccc2)nc2c(C#N)c[nH]n2c1=O + CC(CO)NC(=O)c1cc(-c2ccc(Cl)cc2)nn(-c2cnn(C)c2)c1=O	> 10	> 10	> 10	> 10	> 10	109	97.8	95.2	102	90.2	97.4	106	105	95.9	96.5	106	97.5	110	112	108	viability, T/C [16]: 107%; viability, T/C [17]: 113%; viability, T/C [18]: 95.8%; viability, T/C [19]: 106%; viability, T/C [20]: 95.5%; viability, T/C [21]: 116%; viability, T/C [22]: 100%; viability, T/C [23]: 106%; viability, T/C [24]: 99.2%; viability, T/C [25]: 108%; viability, T/C [26]: 117%; viability, T/C [27]: 111%; viability, T/C [28]: 97.8%; viability, T/C [29]: 104%; viability, T/C [30]: 97.1%
COc1ccc([C@@H](O)c2cc(-c3ncnc4cc(N5CCOCC5)ccc34)c(F)cc2Cl)nn1 + CC(CO)NC(=O)c1cc(-c2ccc(Cl)cc2)nn(-c2cnn(C)c2)c1=O	5.38	6.65	7.72	> 10	> 10	98	105	92.9	69.7	61	41	110	108	99.9	69.5	58.7	45	104	117	108	viability, T/C [16]: 91.1%; viability, T/C [17]: 61.9%; viability, T/C [18]: 46.4%; viability, T/C [19]: 113%; viability, T/C [20]: 112%; viability, T/C [21]: 105%; viability, T/C [22]: 85.3%; viability, T/C [23]: 64.3%; viability, T/C [24]: 51.7%; viability, T/C [25]: 113%; viability, T/C [26]: 110%; viability, T/C [27]: 109%; viability, T/C [28]: 82%; viability, T/C [29]: 62.4%; viability, T/C [30]: 53.2%
COc1cccc2c1C(=O)c1c(O)c3c(c(O)c1C2=O)CC(O)(C(=O)CO)CC3OC1CC(N)C(O)C(C)O1 (stereo not given) + Cc1ccccc1N=Nc1ccc(NC(=O)c2ccnn2C)c(C)c1	0.423	0.416	0.519	0.489	0.493	83.7	78	60.2	20.7	2.13	2.2	82.7	77.9	59.9	19.2	3.1	3.13	85.7	93.8	70.9	viability, T/C [16]: 21.4%; viability, T/C [17]: 3.42%; viability, T/C [18]: 2.49%; viability, T/C [19]: 83.2%; viability, T/C [20]: 79.9%; viability, T/C [21]: 68.3%; viability, T/C [22]: 20.1%; viability, T/C [23]: 4.16%; viability, T/C [24]: 1.64%; viability, T/C [25]: 79.2%; viability, T/C [26]: 85.7%; viability, T/C [27]: 70.2%; viability, T/C [28]: 17.2%; viability, T/C [29]: 2.04%; viability, T/C [30]: 2.28%
